Measurements: publication PMC7999182, “Interaction of Remdesivir with Clinically Relevant Hepatic Drug Uptake Transporters” (Pharmaceutics, 2021)

Legend:
OATP1B1 = molecular target: T1, OATP1B1 (Homo sapiens, UniProt Q9Y6L6); assay: Inhibition of OATP1B1-mediated BSP uptake; assay type: cell-based
T1 construct: expressed in transfected cells
T1 sequence (Q9Y6L6 1-691): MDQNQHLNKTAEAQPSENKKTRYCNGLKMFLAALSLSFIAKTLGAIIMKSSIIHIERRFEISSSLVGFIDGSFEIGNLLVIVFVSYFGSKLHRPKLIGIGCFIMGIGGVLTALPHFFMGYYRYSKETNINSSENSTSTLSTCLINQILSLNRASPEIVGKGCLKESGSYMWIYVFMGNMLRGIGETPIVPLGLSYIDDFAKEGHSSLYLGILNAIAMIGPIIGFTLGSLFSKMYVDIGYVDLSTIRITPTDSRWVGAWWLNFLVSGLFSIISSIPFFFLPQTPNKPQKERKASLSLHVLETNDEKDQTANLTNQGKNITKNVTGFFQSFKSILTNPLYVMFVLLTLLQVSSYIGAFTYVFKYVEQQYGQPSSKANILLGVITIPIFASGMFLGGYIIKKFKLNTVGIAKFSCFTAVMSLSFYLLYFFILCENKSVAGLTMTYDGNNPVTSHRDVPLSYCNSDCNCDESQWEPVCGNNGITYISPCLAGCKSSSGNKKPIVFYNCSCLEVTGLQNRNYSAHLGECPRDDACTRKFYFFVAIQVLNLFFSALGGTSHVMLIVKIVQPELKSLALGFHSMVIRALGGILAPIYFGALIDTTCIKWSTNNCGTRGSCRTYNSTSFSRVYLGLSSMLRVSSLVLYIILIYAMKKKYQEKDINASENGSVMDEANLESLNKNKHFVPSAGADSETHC
Source text: Generation, cultivation and characterization of human embryonic kidney (HEK) cells stably expressing OATP1B1 refseq (=OATP1B1*1a), OATP1B1*1b, OATP1B1*5 and OATP1B1*15 [18], OATP1B3 [19], OATP2B1 [13] and OCT1 [20] have been described previously. OATP1B1 cells were cultivated in minimal essential medium (Life Technologies, Paisley, UK) and OATP1B3, OATP2B1 and OCT1 cells were cultivated in Dulbecco’s modified Eagle medium (Sigma, Darmstadt, Germany). Cultivation media were supplemented with 10% fetal calf serum, 100 U/mL penicillin and 100 µg/mL streptomycin. Cells were grown at 37 °C and 5% CO2. Functionality of the cells was confirmed by measuring uptake of prototypic substrates (see Section 2.3 and supplementary material).
Prototypic substrate uptake was performed as described previously. For this, uptake solutions contained the respective substrate with tracer amounts of radiolabeled substrate. In case of inhibition studies, uptake solutions additionally contained different concentrations of remdesivir. […] Cells were then lysed with 0.2% sodium dodecyl sulfate and intracellular radioactivity was measured by liquid scintillation counting (Tricarb2800, PerkinElmer Life Sciences GmbH, Rodgau, Germany or Hidex 300SL TDCR liquid scintillation counter, Turku, Finland). […]

OATP2B1 = test system: OATP2B1; parameters: method as in PMID 33435273; details: pyranine transport; cited from earlier work

CCC(CC)COC(=O)[C@H](C)N[P@](=O)(OC[C@H]1O[C@@](C#N)(c2ccc3c(N)ncnn23)[C@H](O)[C@@H]1O)Oc1ccccc1 [Remdesivir]
Effect on prototypic substrate uptake (OATP1B1; 0.05 µM BSP, 10 min uptake, different remdesivir concentrations): significant concentration-dependent inhibitory effect | Transporter inhibition at 10 µM (OATP1B1; 10 µM remdesivir, BSP as substrate): inhibition | IC50 (OATP2B1): 3.8 µM
